pIC50: −log10 of the molar value. Where a name gives a salt, the structure may show the parent alone. Values belong to the compound of their own block, whether it stands above or below them.
Biological target: T1, recombinant IRAK-4 kinase (Homo sapiens, UniProt Q9NWZ3)
T1 construct: purchased Millipore, USA
T1 sequence (Q9NWZ3 1-460): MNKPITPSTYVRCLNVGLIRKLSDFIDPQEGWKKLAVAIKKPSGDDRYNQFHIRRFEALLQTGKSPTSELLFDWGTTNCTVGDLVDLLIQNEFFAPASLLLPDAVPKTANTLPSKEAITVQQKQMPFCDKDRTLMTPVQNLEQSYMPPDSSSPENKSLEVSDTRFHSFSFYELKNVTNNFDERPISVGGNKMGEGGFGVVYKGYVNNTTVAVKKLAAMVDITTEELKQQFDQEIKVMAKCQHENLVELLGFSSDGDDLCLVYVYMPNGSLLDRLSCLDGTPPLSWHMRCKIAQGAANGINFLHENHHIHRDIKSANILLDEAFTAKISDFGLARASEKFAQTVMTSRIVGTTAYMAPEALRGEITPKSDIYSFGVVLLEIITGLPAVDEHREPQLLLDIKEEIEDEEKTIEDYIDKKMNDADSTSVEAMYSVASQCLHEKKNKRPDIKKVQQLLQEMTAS
Assay: IRAK-4 biochemical assay (TR-FRET)
Settings: IRAK-4 enzyme, 20 μM ATP; for inhibition at 0.1 µM: compound at 0.1 μM; for inhibition at 1 µM: compound at 1 μM; for pIC50: dose response
Procedure: Compounds were tested for their potential to inhibit IRAK-4 enzyme in a TR-FRET assay using recombinant IRAK-4 kinase from Millipore, USA. The assay buffer was 50 mM Tris-HCl pH 7.5, 20 mM MgCl2, 1 mM EGTA, 2 mM DTT, 3 mM MnCl2 and 0.01% Tween 20.5 ng of IRAK-4 kinase was used for the assay. After pre-incubation of enzyme with test compound for 30 minutes at room temperature, a substrate mixture containing 100 nM Biotin Histone H3 (Millipore, USA) and 20 μM ATP (Sigma, USA) was added and the reaction was incubated for 30 min. Post incubation, the reaction was stopped by the addition of stop mix containing 40 mM EDTA, 1 nM of Europium-Anti-Phospho-Histone H3 (Ser10) antibody (Perkin Elmer, USA) and 20 nM SureLight Allophycocyanin-Streptavidin (Perkin Elmer, USA). The fluorescence emission at 615 nm and 665 nm were measured at an excitation of 340 nm and the percent inhibition was estimated from the ratio of the fluorescence intensities [(F665/F615)×10000]. […] The IC50 values were estimated by fitting the dose-response data to sigmoidal dose response (variable slope), curve fitting program using Graphpad Prism software Version 6.01.

Structure (SMILES): Cc1cc(-c2nc(C(=O)Nc3cc4c(cnn4C)cc3N3CCCC(F)C3)co2)ccn1 (stereo not shown) [Example 16, N—(5-(3-fluoropiperidin-1-yl)-1-methyl-1H-indazol-6-yl)-2-(2-methylpyridin-4-yl)oxazole-4-carboxamide]
inhibition at 0.1 µM: 94%
inhibition at 1 µM: 99%
pIC50: > 7.00

Structure (SMILES): Cc1cc(-c2nc(C(=O)Nc3cc4c(cnn4C)cc3N3CC[C@H](O)C3)co2)ccn1 [Example 11, (S)—N—(5-(3-hydroxypyrrolidin-1-yl)-1-methyl-1H-indazol-6-yl)-2-(2-methylpyridin-4-yl)oxazole-4-carboxamide hydrochloride]
inhibition at 0.1 µM: 95%
inhibition at 1 µM: 98%
pIC50: > 7.00

Structure (SMILES): Cc1cc(-c2nc(C(=O)Nc3cc4nn(C)cc4cc3N3CCCC(F)C3)co2)ccn1 (stereo not shown) [Example 14, N—(5-(3-fluoropiperidin-1-yl)-2-methyl-2H-indazol-6-yl)-2-(2-methylpyridin-4-yl)oxazole-4-carboxamide]
inhibition at 0.1 µM: 94%
inhibition at 1 µM: 96%
pIC50: > 7.00

Structure (SMILES): Cn1ncc2cc(N3CC[C@H](O)C3)c(NC(=O)c3coc(C4=CCNCC4)n3)cc21 [Example 34, (S)—N—(5-(3-hydroxypyrrolidin-1-yl)-1-methyl-1H-indazol-6-yl)-2-(1,2,3,6-tetrahydropyridin-4-yl)oxazole-4-carboxamide hydrochloride]
inhibition at 0.1 µM: 0%
inhibition at 1 µM: 41%

Structure (SMILES): Cc1cc(-c2nc(C(=O)Nc3cc4nn(C)cc4cc3N3CCCC(O)C3)co2)ccn1 (stereo not shown) [Example 13, N—(5-(3-hydroxypiperidin-1-yl)-2-methyl-2H-indazol-6-yl)-2-(2-methylpyridin-4-yl)oxazole-4-carboxamide hydrochloride]
inhibition at 0.1 µM: 79%
pIC50: > 7.00

Structure (SMILES): Cn1ncc2cc(N3CCCCC3)c(NC(=O)c3coc(N4CC[C@H](O)C4)n3)cc21 [Example 10, (S)-2-(3-hydroxypyrrolidin-1-yl)—N—(1-methyl-5-(piperidin-1-yl)-1H-indazol-6-yl)oxazole-4-carboxamide]
inhibition at 0.1 µM: 95%
inhibition at 1 µM: 91%
pIC50: > 7.00

Structure (SMILES): Cn1ncc2cc(N3CCCCC3)c(NC(=O)c3cccc(N4CC[C@H](N)C4)n3)cc21 [Example 8, (S)-6-(3-aminopyrrolidin-1-yl)—N—(1-methyl-5-(piperidin-1-yl)-1H-indazol-6-yl)picolinamide]
inhibition at 0.1 µM: 90%
inhibition at 1 µM: 56%
pIC50: < 6.60

Structure (SMILES): Cn1cc2cc(N3CCCCC3)c(NC(=O)c3coc(N4CC[C@H](O)C4)n3)cc2n1 [Example 6, (S)-2-(3-hydroxypyrrolidin-1-yl)—N—(2-methyl-5-(piperidin-1-yl)-2H-indazol-6-yl)oxazole-4-carboxamide]
inhibition at 0.1 µM: 96%
inhibition at 1 µM: 90%
pIC50: 6.60 to 7.00

Structure (SMILES): Cn1cc2cc(N3CCCCC3)c(NC(=O)c3coc(N4CC[C@H](N)C4)n3)cc2n1 [Example 5, (S)-2-(3-aminopyrrolidin-1-yl)—N—(2-methyl-5-(piperidin-1-yl)-2H-indazol-6-yl)oxazole-4-carboxamide]
inhibition at 0.1 µM: 95%
inhibition at 1 µM: 82%
pIC50: < 6.60

Structure (SMILES): Cc1cc(-c2nc(C(=O)Nc3cc4c(cnn4C)cc3N3CCC(O)CC3)co2)ccn1 [Example 17, N—(5-(4-hydroxypiperidin-1-yl)-1-methyl-1H-indazol-6-yl)-2-(2-methylpyridin-4-yl)oxazole-4-carboxamide]
inhibition at 0.1 µM: 93%
inhibition at 1 µM: 95%
pIC50: > 7.00

Structure (SMILES): Cc1cc(-c2nc(C(=O)Nc3cc4c(cnn4C)cc3N3C4CCC3CC(O)C4)co2)ccn1 (stereo not shown) [Example 38, N—(5-(3-hydroxy-8-azabicyclo[3.2.1]octan-8-yl)-1-methyl-1H-indazol-6-yl)-2-(2-methylpyridin-4-yl)oxazole-4-carboxamide]
inhibition at 0.1 µM: 5%
inhibition at 1 µM: 77%
pIC50: < 6.60

The next lines start with the values.

inhibition at 0.1 µM: 88%
inhibition at 1 µM: 97%
pIC50: < 6.60
Structure (SMILES): Cc1cc(-c2nc(C(=O)Nc3cc4[nH]ncc4cc3N3CC[C@H](O)C3)co2)ccn1 [Example 27, (S)—N—(5-(3-hydroxypyrrolidin-1-yl)-1H-indazol-6-yl)-2-(2-methylpyridin-4-yl)oxazole-4-carboxamide]

inhibition at 0.1 µM: 14%
inhibition at 1 µM: 95%
pIC50: > 7.00
Structure (SMILES): Cn1ncc2cc(N3CC[C@@H](O)C3)c(NC(=O)c3coc(-c4cccnc4N)n3)cc21 [Example 29, (R)-2-(2-aminopyridin-3-yl)—N—(5-(3-hydroxypyrrolidin-1-yl)-1-methyl-1H-indazol-6-yl)oxazole-4-carboxamide hydrochloride]

inhibition at 0.1 µM: 49%
inhibition at 1 µM: 92%
pIC50: 6.60 to 7.00
Structure (SMILES): Cc1cc(-c2ncc(C(=O)Nc3cc4c(cnn4C)cc3N3CC[C@H](O)C3)o2)ccn1 [Example 39, (S)—N—(5-(3-hydroxypyrrolidin-1-yl)-1-methyl-1H-indazol-6-yl)-2-(2-methylpyridin-4-yl)oxazole-5-carboxamide]

inhibition at 0.1 µM: 0%
inhibition at 1 µM: 0%
Structure (SMILES): Cn1ncc2cc(N3CC[C@H](O)C3)c(NC(=O)c3coc(C4CCNCC4)n3)cc21 [Example 37, (S)—N—(5-(3-hydroxypyrrolidin-1-yl)-1-methyl-1H-indazol-6-yl)-2-(piperidin-4-yl)oxazole-4-carboxamide hydrochloride]

inhibition at 0.1 µM: 81%
inhibition at 1 µM: 95%
pIC50: > 7.00
Structure (SMILES): Cn1ncc2cc(N3CC[C@H](O)C3)c(NC(=O)c3coc(-c4cccnc4N)n3)cc21 [Example 23, (S)-2-(2-aminopyridin-3-yl)—N—(5-(3-hydroxypyrrolidin-1-yl)-1-methyl-1H-indazol-6-yl)oxazole-4-carboxamide]

inhibition at 0.1 µM: 45%
inhibition at 1 µM: 93%
pIC50: 6.60 to 7.00
Structure (SMILES): Cc1nccc(-c2nc(C(=O)Nc3cc4c(cnn4C)cc3N3CC[C@H](O)C3)co2)n1 [Example 35, (S)—N—(5-(3-hydroxypyrrolidin-1-yl)-1-methyl-1H-indazol-6-yl)-2-(2-methylpyrimidin-4-yl)oxazole-4-carboxamide hydrochloride]

inhibition at 0.1 µM: 0%
inhibition at 1 µM: 17%
Structure (SMILES): Cc1cc(-c2nc(C(=O)Nc3cc4c(cnn4C)cc3N3CC[C@H](O)C3)c(C)o2)ccn1 [Example 41, (S)—N—(5-(3-hydroxypyrrolidin-1-yl)-1-methyl-1H-indazol-6-yl)-5-methyl-2-(2-methylpyridin-4-yl)oxazole-4-carboxamide hydrochloride]

inhibition at 0.1 µM: 2%
inhibition at 1 µM: 1%
Structure (SMILES): Cc1cc(-c2nc(C)c(C(=O)Nc3cc4c(cnn4C)cc3N3CC[C@H](O)C3)o2)ccn1 [Example 36, hydrochloride]

inhibition at 0.1 µM: 0%
inhibition at 1 µM: 54%
Structure (SMILES): Cc1cc(-c2nc(C(=O)Nc3cc4c(cnn4CC4CCNCC4)cc3N3CC[C@H](O)C3)co2)ccn1 [Example 44, (S)—N—(5-(3-hydroxypyrrolidin-1-yl)-1-(piperidin-4-ylmethyl)-1H-indazol-6-yl)-2-(2-methylpyridin-4-yl)oxazole-4-carboxamide hydrochloride]

inhibition at 0.1 µM: 2%
inhibition at 1 µM: 12%
Structure (SMILES): Cc1cc(-c2nc(C(=O)Nc3cc4c(cc3N3CCC(CO)CC3)c(C)nn4C)co2)ccn1 [Example 45, N—(5-(4-(hydroxymethyl)piperidin-1-yl)-1,3-dimethyl-1H-indazol-6-yl)-2-(2-methylpyridin-4-yl)oxazole-4-carboxamide hydrochloride]

inhibition at 0.1 µM: 96%
inhibition at 1 µM: 98%
pIC50: > 7.00
Structure (SMILES): Cn1ncc2cc(N3CC[C@H](O)C3)c(NC(=O)c3coc(-c4ccnc(N)c4F)n3)cc21 [Example 28, (S)-2-(2-amino-3-fluoropyridin-4-yl)—N—(5-(3-hydroxypyrrolidin-1-yl)-1-methyl-1H-indazol-6-yl)oxazole-4-carboxamide]

inhibition at 0.1 µM: 96%
inhibition at 1 µM: 92%
pIC50: > 7.00
Structure (SMILES): Cn1ncc2cc(N3CC[C@H](O)C3)c(NC(=O)c3coc(-c4ccnc5[nH]ccc45)n3)cc21 [Example 26, (S)—N—(5-(3-hydroxypyrrolidin-1-yl)-1-methyl-1H-indazol-6-yl)-2-(1H-pyrrolo[2,3-b]pyridin-4-yl)oxazole-4-carboxamide]

inhibition at 0.1 µM: 0%
inhibition at 1 µM: 37%
Structure (SMILES): Cn1ncc2cc(N3CC[C@H](O)C3)c(NC(=O)c3coc(N4CCNCC4)n3)cc21 [Example 31, (S)—N—(5-(3-hydroxypyrrolidin-1-yl)-1-methyl-1H-indazol-6-yl)-2-(piperazin-1-yl)oxazole-4-carboxamide hydrochloride]

Reference: patent publication US20170152263A1, “Substituted Indazole Compounds as IRAK4 Inhibitors” (AURIGENE DISCOVERY TECHNOLOGIES LIMITED, priority 2014, published 2017)
